Read-outs that look alike come from different tables or passages of the source.
Experiments:
[1] = tested on: guinea pig ileum longitudinal muscle with myenteric plexus; assay: Guinea Pig Ileum Test (electrically stimulated longitudinal muscle, inhibition of twitch height); type: cell-based; conditions: ratio of IC50 of reference Met5-enkephalin (given as 100) to IC50 of test compound, same preparation, averaged over four preparations
Protocol: Adult male guinea pigs (Charles River, Hartley strain) weighing 300-500 g. are decapitated, and the terminal ileum is exposed by reflecting the overlying cecum, severed at the ileocecal juncture, and removed while cutting the mesenteric attachments to avoid excessive traction on the tissue. The ileum (about 30 cm. in length) is transferred to a beaker containing warm modified Krebs-Henseleit solution (118 mM sodium chloride, 4.75 mM potassium chloride, 2.45 mM calcium chloride, 1.19 mM potassium dihydrogen phosphate, 1.2 mM magnesium sulfate, 25 mM sodium bicarbonate, 11 mM glucose, 20 μM choline chloride and 0.125 μM pyrilamine maleate). The terminal (aboral) portion (about 10 cm. in length) is discarded, and segments (3-4 cm. in length) are cut from the remainder and gently slid onto a glass rod (5-6 mm. in diameter) and arranged so that the mesenteric attachment is in a straight line. A cotton swab moistened in the solution is then carefully used to separate the longitudinal muscle from the underlying circular muscle. The longitudinal muscle and adhering myenteric plexus is then gently removed from the remaining tissue with forceps.
Strips of thus prepared longitudinal muscle are mounted in a double-jacketed organ bath (5 ml.) under tension (1.0 g.), connected to isometric transducers (Grass FT 0.03), bathed in the modified Krebs-Henseleit solution described above, aerated with oxygen-carbon dioxide (95:5) and maintained at 37° C.
Stimulators (Grass S-44) are set to deliver repetitive monphasic square wave field stimulation (supramaximal voltage, 0.10 Hz., 0.25 msec. duration) through platinum ring electrodes at the top and bottom of the bath. Regular contractions of the muscle, which result from electrically-induced liberation of acetylcholine from postganglionic parasympathetic nerves, are recorded on a polygraph (Grass model 5). Following tissue equilibration (45-60 min.) and repeated washing (every 10 min.) an aqueous solution of a reference or test compound is added to the bath in a microliter volume (1.25-250 μl) and reductions in muscle twitch height are recorded. More compound can be added […] first washing the preparation.
From the results a half-maximal inhibitory concentration (IC50) value for the compound is computed by regression analysis of a linear plot of logarithm of concentration against percent of inhibition of twitch height (probits). The ratio of the […] of a reference compound to that of a test compound tested in the same preparation is the molar potency ratio. Usually four preparations are tested simultaneously by the same person (N=4), and the resulting four molar potency ratios are averaged.
The following results were obtained using the examples as test compounds and Met^5 -enkephalin as the reference compound: […]

Male Swiss-Webster mice = assay: Mouse Acetylcholine Writhing Test; type: in vivo; conditions: 20 min, subcutaneous, approximate, acetylcholine 3.2 mg./kg. i.p. 20 min after dosing
Protocol: Male Swiss-Webster mice each weighing 18-24 g. are treated subcutaneously (10 ml./kg. injection volume) or orally with the test compound in an aqueous vehicle. Twenty minutes thereafter each mouse is injected intraperitoneally with acetylcholine (3.2 mg./kg.) in aqueous sodium chloride (0.9%). This dose of acetylcholine causes one or more characteristic writhes in the two minute period following injection in control mice which receive the aqueous vehicle not containing the test compound. […] Test compounds are screened at doses of 100 and 30 mg./kg. subcutaneously and 300 and 100 mg./kg. orally using 15 mice at each dose level. ED50 values for active compounds are estimated by probit analysis of quantal scores at four or more dose levels using 15 mice at each dose level.

rat = rat tail flick, cited from earlier work
opiate receptor = conditions: rat brain membranes; cited from earlier work
guinea pig ileum = conditions: cited from earlier work
mouse vas deferens = conditions: cited from earlier work

Compound | Average Molar Potency Ratio [1] | other results
CSCCCN(CCCc1ccccc1)C(=O)[C@@H](C)NC(=O)[C@@H](N)Cc1ccc(O)cc1.CSCCCN(CCCc1ccccc1)C(=O)[C@@H](C)NC(=O)[C@@H](N)Cc1ccc(O)cc1.Cl.Cl.O [Example 10, L-tyrosyl-N-[3-(methylthio)propyl]-N-(3-phenylpropyl)-D-alaninamide monhydrochloride hemihydrate] | 15 | 
C[C@@H](NC(=O)[C@@H](N)Cc1ccc(O)cc1)C(=O)N(CCCc1ccccc1)CCC[S+](C)[O-].Cl (stereo partly drawn) [Example 11, L-tyrosyl-N-[3-(methylsulfinyl)propyl]-N-(3-phenylpropyl)-D-alaninamide monohydrochloride] | 3 | 
C[C@@H](NC(=O)[C@@H](N)Cc1ccc(O)cc1)C(=O)NCCCCc1ccccc1.Cl [Example 5, L-tyrosyl-N-(4-phenylbutyl)-D-alaninamide monohydrochloride] | 12 | 
C[C@@H](NC(=O)[C@@H](N)Cc1ccc(O)cc1)C(=O)N(CCCc1ccccc1)CCN(C)C.Cl.Cl [Example 7, L-tyrosyl-N-[2-(dimethylamino)ethyl]-N-(3-phenylpropyl)-D-alaninamide dihydrochloride] | 4 | 
C[C@@H](NC(=O)[C@@H](N)Cc1ccc(O)cc1)C(=O)N(C)CCCc1ccccc1.Cl.O [Example 2, L-tyrosyl-N-methyl-N-(3-phenylpropyl)-D-alaninamide monohydrochloride monohydrate] | 9 | ED50 (Male Swiss-Webster mice): > 10 mg/kg
L-tyrosyl-N-(3-phenylpropyl)-D-alaninamide monohydrochloride sesquihydrate [Example 3] | 117 | 
Met^5 -enkephalin [reference compound] | 100 | 
C[C@@H](NC(=O)[C@@H](N)Cc1ccc(O)cc1)C(=O)NCCCCCc1ccccc1.Cl.O [Example 6, L-tyrosyl-N-(5-phenylpentyl)-D-alaninamide monohydrochloride monohydrate] | 30 | 
CCN(CCCc1ccccc1)C(=O)[C@@H](C)NC(=O)[C@@H](N)Cc1ccc(O)cc1.Cl [Example 4, L-tyrosyl-N-ethyl-N-(3-phenylpropyl)-D-alaninamide monohydrochloride] | 4 | ED50 (Male Swiss-Webster mice): > 30 mg/kg
C[C@@H](NC(=O)[C@@H](N)Cc1ccc(O)cc1)C(=O)NCCc1ccccc1.Cl.O [Example 1, L-tyrosyl-N-(2-phenylethyl)-D-alaninamide monohydrochloride hydrate (4:5)] | 14 | 
C[C@H](CCc1ccccc1)NC(=O)[C@@H](C)NC(=O)[C@@H](N)Cc1ccc(O)cc1.Cl [Example 9, L-tyrosyl-N-(1-R-methyl-3-phenylpropyl)-D-alaninamide monohydrochloride] | 12 | 
C[C@@H](NC(=O)[C@@H](N)Cc1ccc(O)cc1)C(N)=O [H-Tyr-D-Ala-NH2] |  | times less potent than morphine (rat; intravenously): greater than 10 times; times less potent than morphine (rat; intraventricularly): 200 times; times less affinity than morphine (opiate receptor): 830 times
C[C@@H](NC(=O)[C@@H](N)Cc1ccc(O)cc1)C(=O)NCCNCCc1ccccc1 [HTyrD-AlaNH(CH2)2 NH(CH2)2 Phenyl] |  | potency relative to Met-enkephalin (guinea pig ileum): < 1%; potency relative to Met-enkephalin (mouse vas deferens): < 1%
C[C@@H](CCc1ccccc1)NC(=O)[C@@H](C)NC(=O)[C@@H](N)Cc1ccc(O)cc1.Cl [Example 8, L-tyrosyl-N-(1-S-methyl-3-phenylpropyl)-D-alaninamide monohydrochloride] | 115 | 
